Tests used:
[1] = system: WNV virus, Kunjin strain (KUNV); test: Antiviral activity against the WNV virus Kunjin strain in HeLa cells (nanoluciferase reporter); format: cell-based; conditions: West Nile virus, KUNV-luciferase reporter virus, MOI=0.1, 24 h
[2] = system: SARS-COV2 virus, BetaCoV/France/IDF0371/2020; test: Antiviral activity against SARS-COV2 coronavirus in VeroE6 cells (viral RNA by qRT-PCR); format: cell-based; conditions: 1.25 μM, 24 h
[3] = system: ZIKV BeH8 strain; test: Antiviral activity against the Zika virus in HeLa cells (viral RNA by qRT-PCR); conditions: for IC50: Zika virus, HeLa, 24 h, read-out: IC50 ZIKV
[4] = system: MAYV virus, TRVL4576 strain; test: Antiviral activity against the Mayaro virus in HeLa cells (luciferase reporter); conditions: 24 h, read-out: IC50 MAYV
[5] = system: CHIKV virus, LR-OPY1 strain; test: Antiviral activity against the Chikungunya virus in HeLa cells (luciferase/GFP reporter); conditions: for IC50: Chikungunya virus, HeLa, 24 h, read-out: IC50 CKV

| SMILES | IC50 [1] [µM] | effect on infection of the cells by the SARS-COV2 virus [2] | concentration that prevents infection of the Hela cells by the strain ZIKV BeH-8 ([3]; HeLa cells, MOI=0.1, 24 h) | IC50 [3] [µM] | IC50 [4] [µM] | IC50 [5] [µM] | concentration that prevents infection of the Hela cells by the Chikungunya virus ([5]; HeLa cells, MOI=0.1, 24 h) |
| --- | --- | --- | --- | --- | --- | --- | --- |
| Cc1ccc(C(=O)Nc2ccc(F)c(-c3c[nH]c4ncc(-c5ccccc5)cc34)c2)c(=O)n1-c1ccc(F)cc1 [Compound 15, 1-(4-fluorophenyl)-6-methyl-2-oxo-1,2-dihydro-pyridine-3-carboxylic acid [4-fluoro-3-(5-phenyl-1H-pyrrolo[2,3-b]pyridin-3-yl)-phenyl]-amide] | 0.934 | – | – | – | – | – | – |
| O=C(Nc1ccc(F)cc1)C1(C(=O)Nc2cccc(-c3c[nH]c4ncc(-c5ccccc5)cc34)c2)CC1 [Compound 5, Cyclopropane-1,1-dicarboxylic acid (4-fluoro-phenyl)-amide [3-(5-phenyl-1H-pyrrolo[2,3-b]pyridin-3-yl)-phenyl]-amide] | – | reduces the infection | – | – | – | – | – |
| Cc1ccc(C(=O)Nc2cccc(-c3c[nH]c4ncc(-c5ccccc5)cc34)c2)c(=O)n1-c1ccc(F)cc1 [Compound 4, 1-(4-fluorophenyl)-6-methyl-2-oxo-1,2-dihydro-pyridine-3-carboxylic acid [3-(5-phenyl-1H-pyrrolo[2,3-b]pyridin-3-yl)-phenyl]-amide] | 1.32 | – | greater than or equal to 100 nM | 0.29 | 0.313 | 0.243 | greater than or equal to 100 nM |
| Nc1nc(Nc2ccc3c(c2)CC[C@@H](N2CCCC2)CC3)nn1-c1cc2c(nn1)-c1ccccc1CCC2 [R428/Bemcentinib, reference compound] | – | – | – | 0.285 | – | 0.239 | – |
